Read-outs that look alike come from different tables or passages of the source. Ends that are not written are not given here.
T1: FcεRI receptor (Rattus norvegicus, UniProt P12371+P13386+P20411)
T1 construct: FcεRI receptor, which is present on surfaces of mast cells; endogenous in cells; host or cells: RBL-2H3 rat mast cell line
T1 sequence (P12371 24-245): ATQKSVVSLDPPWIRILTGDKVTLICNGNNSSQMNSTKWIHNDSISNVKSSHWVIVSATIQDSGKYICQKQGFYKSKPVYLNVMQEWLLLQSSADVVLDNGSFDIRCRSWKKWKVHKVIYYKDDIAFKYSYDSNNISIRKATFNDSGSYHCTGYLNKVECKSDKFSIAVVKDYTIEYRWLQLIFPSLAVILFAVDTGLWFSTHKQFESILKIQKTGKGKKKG
T1 sequence (P13386 1-243): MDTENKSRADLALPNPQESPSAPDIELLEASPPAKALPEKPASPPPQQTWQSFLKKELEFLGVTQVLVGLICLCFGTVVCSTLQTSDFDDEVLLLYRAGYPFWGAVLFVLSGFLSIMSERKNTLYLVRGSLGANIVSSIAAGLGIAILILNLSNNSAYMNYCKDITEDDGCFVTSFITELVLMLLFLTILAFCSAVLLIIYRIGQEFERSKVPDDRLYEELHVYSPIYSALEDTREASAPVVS
T1 sequence (P20411 19-86): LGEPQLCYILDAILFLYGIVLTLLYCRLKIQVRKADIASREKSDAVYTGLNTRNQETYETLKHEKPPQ


Experiments:
RBL-2H3 cells = experiment: Histamine secretion from IgE/HSA-stimulated mast cells (histamine ELISA); format: cell-based, rat; details: IgE 1 μg/ml sensitized, HSA 1 μg/ml stimulated
Method: In the culture of RBL-2H3 cells sensitized by IgE treatment (1 μg/ml) for 16 h, the existing culture medium was removed and exchanged with a tyrode buffer. […] In addition, in order to measure the activity of beta-hexosaminidase, the degree of color development after a reaction with a substrate, p-N-acetyl-glucosamine (NAG; SIGMA, USA) was determined by measuring the absorbance at 405 nm using a spectrophotometer (see FIG. 3b).

Bcl2 = details: 1 and 10 μg/ml, 27 h
[1] = Thermal stability at 37° C. in phosphate buffered saline, HPLC quantification; format: physicochemical; details: 0.1 mg/ml in PBS, days 0-70 (FIG. 5)
Method: 1 ml of the prepared solution was placed in each glass vial, and allowed to stand at 37° C. The solution standing at 37° C. was sampled on days 0, 5, 10, 20, 30, 50, and 70. Centrifugation for each day was conducted to remove modified peptides or proteins, and the supernatant was taken. HPLC was used for quantification (see FIG. 5).

NIH3T3 cells = details: NIH3T3 fibroblasts; 1 and 10 μg/ml; 27 h; MTT
Method: (§1) Meanwhile, in order to investigate whether or not the apoptosis effect is a mast cell-specific reaction, the cytotoxicity test was conducted using HaCaT cells as keratinocytes and NIH3T3 cells as fibroblasts. The cells were placed in a 96-well plate for tissue culture at 5×10^3 cells per well, and then cultured for 24 h under conditions of 37° C. and 5% CO2. After 24 h, the medium was exchanged with the same culture liquid. A blank sample for determining a reference and the synthetic peptide were dissolved in 10% distilled water in a sterile state, followed by culturing at concentrations of 1 μg/ml and 10 μg/ml for 27 h under the same conditions as above. After the completion of the culture, the culture liquid was treated with MTT reagent (5 mg/ml; SIGMA, USA) with 1/10 volume and further cultured for 4 h, and the generated formazan was dissolved in DMSO and the absorbance was measured at 540 nm using a spectrophotometer (Molecular devices, USA) (see FIG. 2c).

HaCaT cells = details: HaCaT human keratinocytes; 1 and 10 μg/ml; 27 h; MTT
Method: as §1

[2] = tested on: RBL-2H3 rat mast cell lines; details: 10 μg/ml treatment group, 27 h
Method: First, RBL-2H3 rat mast cell lines (Korean Cell Line Bank, Korea) were cultured in Dulbecco's modified Eagle's medium (DMEM, Gibco, U.S.A.) supplemented with 10% fetal bovine serum (FBS, Sigma) using a flask for tissue culture (SPL, Korea). The cultured cell lines were detached from the bottom of the culture container using a 1% trypsin solution, and then only cell deposits were collected by centrifugation. The cell deposits were again suspended in DMEM culture liquid, placed in each well of a 6-well plate for tissue culture (SPL, Korea) at 1×10^5 cells per well, and then cultured for 24 h under conditions of 37° C. and 5% CO2. After 24 h, the medium was exchanged with the same culture liquid. […] After the completion of the culture, the culture supernatant fluid was removed, the cultured cell lines were detached from the bottom of the culture container using a 1% trypsin solution, and then only cell precipitates were collected by centrifugation. The cells were stained using an Annexin V-PI staining kit (BD pharmigen), and then FL1 and FL2 intensities were measured using flow cytometry, FACS. Annexin V-positive apoptotic cells were counted (see FIG. 2a).

p38 = details: IgE-sensitized cells; peptide 10 μg/ml 20 min; HSA 1 μg/ml 5 or 30 min
Method: (§2) The cells were placed in a 60 mm-sized plate for culture (SPL, Korea) at 1.5×10^6 cells per well, and then cultured for 24 h under conditions of 37° C. and 5% CO2. After that, the cells were treated with IgE (1 μg/ml) for 24 h for cell sensitization, and then a blank sample for determining a reference and the synthetic peptide were dissolved in 10% distilled water in a sterile state, followed by treatment with a concentration of 10 μg/ml for 20 min, and then the cells were stimulated by treatment with 1 μg/ml allergen HSA for 5 min or 30 min.

ERK1/2 = details: IgE-sensitized cells; peptide 10 μg/ml 20 min; HSA 1 μg/ml 5 or 30 min
Method: as §2

FcεRI receptor = molecular target: T1, FcεRI receptor; experiment: Immunoprecipitation with IgE antibody and western blotting of FcεRI gamma sub-chain (receptor complex formation); format: cell-based; details: IgE-sensitized cells; peptide 10 μg/ml; HSA stimulation 10 min
Method: After the first separation using immunoprecipitation, western blotting was conducted using FcεRI gamma sub-chain antibody to confirm the protein amount of the gamma sub-chains binding to IgE (see FIG. 4c).

Lyn = details: IgE-sensitized cells; peptide treatment 20 min; HSA 1 μg/ml
[3] = activated mast cells (IgE and HSA treatment)

| Molecule | secretion amount of histamine (RBL-2H3 cells; positive control 40 μM) | expression level of Bcl2 (Bcl2; [3]) | expression level of Bcl2 (Bcl2; inactivated mast cells) | thermal stability [1] | secretion amount of histamine (RBL-2H3 cells; peptide 1 and 10 μg/ml) | cytotoxicity (NIH3T3 cells) | cytotoxicity (HaCaT cells) | Annexin V-positive cell count (apoptosis) [2, 3] | Annexin V-positive cell count (apoptosis) ([2]; inactivated mast cells) | phosphorylation of p38 (p38) | phosphorylation of ERK1/2 (ERK1/2) | complex formation of FcεRI receptor (gamma sub-chains binding to IgE) (FcεRI receptor) | phosphorylation of Lyn (Lyn) |
| --- | --- | --- | --- | --- | --- | --- | --- | --- | --- | --- | --- | --- | --- |
| O=c1c(O)c(-c2ccc(O)c(O)c2)oc2cc(O)cc(O)c12 [quercetin, reference compound] | reduces the secretion amount of histamine |  |  |  |  |  |  |  |  |  |  |  |  |
| WVPYQARVPYPR [peptide of the present invention] |  | reduce the expression level of Bcl2 | reduce the expression level of Bcl2 | very excellent thermal stability | activity to reduce the secretion amount of histamine in a concentration-dependent manner | did not exhibit cytotoxicity | did not exhibit cytotoxicity | increased the Annexin V-positive cell count | increased the Annexin V-positive cell count | efficacy of inhibiting the phosphorylation | efficacy of inhibiting the phosphorylation | significantly inhibit the complex formation | significantly inhibited in a concentration-dependent manner |
| natural semaphorin 3A protein: standard form growth factor (Semaphorin 3A) purchased from NIBSC (UK); human semaphorin 3A, SEQ ID NO: 2 (protein, listed as Homo sapiens) MGWLTRIVCLFWGVLLTARANYQNGKNNVPRLKLSYKEMLESNNVITFNGLANSSSYHTFLLDEERSRLYVGAKDHIFSFDLVNIKDFQKIVWPVSYTRRDECKWAGKDILKECANFIKVLKAYNQTHLYACGTGAFHPICTYIEIGHHPEDNIFKLENSHFENGRGKSPYDPKLLTASLLIDGELYSGTAADFMGRDFAIFRTLGHHHPIRTEQHDSRWLNDPKFISAHLISESDNPEDDKVYFFFRENAIDGEHSGKATHARIGQICKNDFGGHRSLVNKWTTFLKARLICSVPGPNGIDTHFDELQDVFLMNFKDPKNPVVYGVFTTSSNIFKGSAVCMYSMSDVRRVFLGPYAHRDGPNYQWVPYQGRVPYPRPGTCPSKTFGGFDSTKDLPDDVITFARSHPAMYNPVFPMNNRPIVIKTDVNYQFTQIVVDRVDAEDGQYDVMFIGTDVGTVLKVVSIPKETWYDLEEVLLEEMTVFREPTAISAMELSTKQQQLYIGSTAGVAQLPLHRCDIYGKACAECCLARDPYCAWDGSACSRYFPTAKRRTRRQDIRNGDPLTHCSDLHHDNHHGHSPEERIIYGVENSSTFLECSPKSQRALVYWQFQRRNEERKEEIRVDDHIIRTDQGLLLRSLQQKDSGNYLCHAVEHGFIQTLLKVTLEVIDTEHLEELLHKDDDGDGSKTKEMSNSMTPSQKVWYRDFMQLINHPNLNTMDEFCEQVWKRDRKQRRQRPGHTPGNSNKWKHLQENKKGRNRRTHEFERAPRSV |  |  |  | low stability at the time of storage for a long period of time |  |  |  |  |  |  |  |  |  |

— patent US9637519B2, “Peptide for inducing mast cell-specific apoptosis and use thereof” (CAREGEN CO., LTD., priority 2013, dated 2017)
